Tests used:
[1] = Stability in mouse plasma and its final extract (LC-MS/MS); assay type: in vitro ADME; conditions: mouse plasma; − 20 °C, 3 m; nominal 150 ng/mL
Protocol: (§1) 50 μL of the sample (either from a preclinical study, calibration standard, or QC) was mixed with 25 μL of IS-working solution, followed by 150 μL of ACN for protein precipitation. Samples were vortex mixed and centrifuged at 23,100g for 10 min at 20 °C. An aliquot of 80 μL of supernatant was diluted with 120 μL of 10 mM ammonium bicarbonate in water:MeOH (1:1 v/v). The final extract was transferred to a glass vial with insert, and 10 μL was injected to the LC-MS/MS system for analysis.
(§2) The stability of each analyte was investigated in all the previously mentioned matrices. For plasma (both human and mouse), the stability was determined in triplicate at two concentration levels, QC L and QC H, whereas for mouse tissue homogenates only at QC M (except the brain in one stability condition). For all matrices, the following stability conditions were assessed: short term at room temperature (RT), long term at − 20 °C, and after 3 freeze-thaw (F/T) cycles at − 20 °C/RT. Furthermore, for tissue homogenates, the short-term stability in ice-water, long-term stability at − 70 °C, and F/T stability at − 70 °C/ice-water were also evaluated. Additionally, the stability in the final extract was tested. […] Lastly, the stability of the stock solutions at − 20 °C was investigated.

[2] = Stability in mouse brain homogenate and its final extract; assay type: in vitro ADME
Protocol: (§3) After weighing the complete organ, a volume of 3 mL of this solution was added to the liver and small intestine, 2 mL to the kidneys, and 1 mL to the brain and spleen. The tissue/BSA ratio (w/v) of the homogenates were approximately 0.4:1 for the brain and liver, 0.1:1 for the spleen, 0.2:1 for the kidneys, and 0.25:1 for the small intestine. All samples were shaken in the Fast Prep at 6.0 m/s during 60 s. The stability of each analyte was investigated in all the previously mentioned matrices. For plasma (both human and mouse), the stability was determined in triplicate at two concentration levels, QC L and QC H, whereas for mouse tissue homogenates only at QC M (except the brain in one stability condition). For all matrices, the following stability conditions were assessed: short term at room temperature (RT), long term at − 20 °C, and after 3 freeze-thaw (F/T) cycles at − 20 °C/RT. Furthermore, for tissue homogenates, the short-term stability in ice-water, long-term stability at − 70 °C, and F/T stability at − 70 °C/ice-water were also evaluated. Additionally, the stability in the final extract was tested. For this, the QC L and QC H final extracts from the plasma, brain, and spleen and the QC M final extract from the liver, kidney and small intestine were stored at 4–8 °C up to 3 days. Lastly, the stability of the stock solutions at − 20 °C was investigated.

[3] = Plasma pharmacokinetics in mice after oral administration; assay type: in vivo, mouse (FVB)
Protocol: This method was developed to support pharmacokinetic and tissue distribution studies of the CDK4/6 inhibitors in mice (FVB background). These studies were done separately for each drug. Animal housing and studies were conducted according to institutional guidelines complying with Dutch and European Union legislation (approval number from The Dutch Central Animal Testing Committee: AVD301002016595). […] Approximately 50 μL of blood was collected from the tip of the tail at several time points, except at the last one, when 500–1000 μL of blood was collected by cardiac puncture under isoflurane anesthesia. […] Mice were sacrificed by cervical dislocation and the organs were collected and weighed. Plasma was obtained using sodium heparin as anticoagulant after centrifugation at 9000g, 4 °C, for 6 min. When necessary, 10 μL of mouse plasma was diluted with 40 μL of human plasma. The tissue homogenates were prepared according to the procedure described in the “Tissue homogenate preparation” section. Plasma and tissue homogenate samples were stored at − 20 and − 70 °C, respectively, until the LC-MS/MS analysis was performed.

[4] = Stability in mouse liver homogenate and its final extract; assay type: in vitro ADME; conditions: nominal 50 ng/mL
Protocol: as §3

[5] = Stability in mouse kidney homogenate and its final extract; assay type: in vitro ADME; conditions: nominal 50 ng/mL
Protocol: as §3

[6] = Stability in human plasma and its final extract (LC-MS/MS); assay type: in vitro ADME; conditions: nominal 5 ng/mL
Protocol: as §1, §2

[7] = test system: CDK4; conditions: cited from earlier work
[8] = Stability in mouse spleen homogenate and its final extract; assay type: in vitro ADME
Protocol: as §3

[9] = brain homogenate, 3 F/T (− 70 °C, ice/water bath), nominal 50 ng/mL
[10] = brain homogenate, LT − 70 °C, 1 m, nominal 50 ng/mL
[11] = final extract (listed under brain homogenate), 4–8 °C, 3 d, nominal 5 ng/mL
[12] = liver homogenate, 3 F/T (− 70 °C, ice/water bath)
[13] = kidney homogenate, LT − 70 °C, 1 m
[14] = final extract (listed under spleen homogenate), 4–8 °C, 3 d, nominal 5 ng/mL

CN(C)C(=O)c1cc2cnc(Nc3ccc(N4CCNCC4)cn3)nc2n1C1CCCC1 [Ribociclib]
Accuracy (% Bias) [1]: 4.7% | Mean concentration ([2]; brain homogenate, 3 F/T (RT, − 20 °C), nominal 50 ng/mL): 48.8 ng/mL | Accuracy (% Bias) [2, 9]: 0.1% | Mean concentration [2, 9]: 50.0 ng/mL | Mean concentration ([2]; brain homogenate, LT − 20 °C, 1 m, nominal 50 ng/mL): 49.1 ng/mL | Accuracy (% Bias) [2, 10]: 4.6% | Mean concentration [2, 10]: 52.3 ng/mL | Mean concentration ([2]; brain homogenate, RT, 1 d, nominal 5 ng/mL): 4.6 ng/mL | Mean concentration ([2]; brain homogenate, RT, 1 d, nominal 150 ng/mL): 129.7 ng/mL | Mean concentration ([2]; brain homogenate, ice/water bath, 3 h, nominal 50 ng/mL): 49.4 ng/mL | Accuracy (% Bias) [2, 11]: 2.7% | Mean concentration [2, 11]: […] | Accuracy (% Bias) ([2]; final extract (listed under brain homogenate), 4–8 °C, 3 d, nominal 150 ng/mL): 3.1% | concentration at 8 h ([3]; female, FVB, po, mouse plasma, 20 mg/kg orally administered, t = 8 h, read-out: plasma concentration of representative sample): 625 ng/mL | Cmax ([3]; mouse, female FVB mice, 20 mg/kg oral, plasma, n = 6): 1040 ± 352 ng/mL | AUC(0-t) ([3]; mouse, female FVB mice, 20 mg/kg oral, plasma, n = 6, read-out: AUC0–24h): 6880 ± 1220 ng·h/mL | Tmax ([3]; mouse, female FVB mice, 20 mg/kg oral, plasma, n = 6, read-out: Tmax range): 30 to 60 min | Mean concentration ([4]; final extract (listed under liver homogenate), 4–8 °C, 2 d): […] | Mean concentration ([4]; liver homogenate, 3 F/T (RT, − 20 °C)): 47.7 ng/mL | Accuracy (% Bias) [4, 12]: 0.1% | Mean concentration [4, 12]: 50.0 ng/mL | Mean concentration ([4]; liver homogenate, LT − 20 °C, 1 m): 32.4 ng/mL | Mean concentration ([4]; liver homogenate, LT − 70 °C, 1 m): […] | Mean concentration ([4]; liver homogenate, RT, 1 d): 41.9 ng/mL | Mean concentration ([4]; liver homogenate, ice/water bath, 3 h): 45.4 ng/mL | Mean concentration ([5]; final extract (listed under kidney homogenate), 4–8 °C, 2 d): […] | Mean concentration ([5]; kidney homogenate, 3 F/T (RT, − 20 °C)): 15.7 ng/mL | Mean concentration ([5]; kidney homogenate, 3 F/T (− 70 °C, ice/water bath)): 49.1 ng/mL | Mean concentration ([5]; kidney homogenate, LT − 20 °C, 1 m): 31.5 ng/mL | Accuracy (% Bias) [5, 13]: 0.5% | Mean concentration [5, 13]: 50.2 ng/mL | Mean concentration ([5]; kidney homogenate, RT, 3 h): 43.4 ng/mL | Mean concentration ([5]; kidney homogenate, RT, 1 d): 0.91 ng/mL | Mean concentration ([5]; kidney homogenate, ice/water bath, 3 h): 42.7 ng/mL | Mean concentration ([6]; final extract (listed under human plasma), 4–8 °C, 4 d): […] | Mean concentration ([6]; human plasma, 2 F/T (− 20 °C/RT)): 4.7 ng/mL | Mean concentration ([6]; human plasma, 3 F/T (− 20 °C/RT)): […] | Mean concentration ([6]; human plasma, RT, 3 d): […] | Mean concentration ([6]; human plasma, − 20 °C, 12 m): […] | IC50 [7]: […] | Accuracy (% Bias) [8, 14]: 3.2% | Mean concentration [8, 14]: […] | Mean concentration ([8]; spleen homogenate, 3 F/T (RT, − 20 °C), nominal 50 ng/mL): 42.9 ng/mL | Mean concentration ([8]; spleen homogenate, 3 F/T (− 70 °C, ice/water bath), nominal 50 ng/mL): 49.9 ng/mL | Mean concentration ([8]; spleen homogenate, LT − 20 °C, 1 m, nominal 50 ng/mL): 40.5 ng/mL | Mean concentration ([8]; spleen homogenate, LT − 70 °C, 1 m, nominal 50 ng/mL): 45.0 ng/mL | Mean concentration ([8]; spleen homogenate, RT, 3 h, nominal 50 ng/mL): 44.3 ng/mL | Mean concentration ([8]; spleen homogenate, RT, 1 d, nominal 50 ng/mL): 21.8 ng/mL | Mean concentration ([8]; spleen homogenate, ice/water bath, 3 h, nominal 50 ng/mL): 46.2 ng/mL

— PMC6647725 (Analytical and Bioanalytical Chemistry, 2019)
